# PubChem BioAssay (NCI)
#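 Method: 48-hour compound exposure of cells in 96-well plates, five concentrations, linear interpolation of endpoints. At the GI50, growth is halved. TGI denotes the concentration required for complete inhibition of growth.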
# Tested on: RPMI-8226 leukemia
# Assay: inhibition of tumour cell growth, NCI panel, 48 h
Structure (SMILES),GI50 [nM],TGI [nM]
Cc1ccc(C2CC(c3ccc(Nc4ccnc5cc(Cl)ccc45)cc3)=NN2C=O)cc1 (stereo not given),2180,> 100000
COCC(C(=O)OC1C/C=C/C=C/C(=O)OC(C(C)C(O)C(C)CCC(OC(=O)C(C)N(C)C)C(C)C(OC(C)=O)C(C)/C=C/N(C)C=O)C/C=C/C(OC)CC(C)C/C=C(\C)C(OC)CCC(C)C(O)C1C)N(C)C (stereo not given),< 0.1,7.7

# Tested on: MCF7 breast
# Assay: inhibition of tumour cell growth, NCI panel, 48 h
Structure (SMILES),GI50 [nM],TGI [nM]
CCc1ccc2c(c1)N(CCO)C1=C(C(=O)OC1)C2c1cc(OC)c(OC)c(OC)c1 (stereo not given),209,> 50000
Cc1ccc(C2CC(c3ccc(Nc4ccnc5cc(Cl)ccc45)cc3)=NN2C=O)cc1 (stereo not given),8390,> 100000
COCC(C(=O)OC1C/C=C/C=C/C(=O)OC(C(C)C(O)C(C)CCC(OC(=O)C(C)N(C)C)C(C)C(OC(C)=O)C(C)/C=C/N(C)C=O)C/C=C/C(OC)CC(C)C/C=C(\C)C(OC)CCC(C)C(O)C1C)N(C)C (stereo not given),< 0.1,60

# Tested on: MDA-MB-231 breast
# Assay: inhibition of tumour cell growth, NCI panel, 48 h
Structure (SMILES),GI50,TGI [nM]
Cn1cnnc1[S-].[Au+].c1ccc([PH+](c2ccccc2)c2ccccc2)cc1,1670 nM,3080
Nc1nccc2c([N+](=O)[O-])cccc12,92 µg/mL,
Cc1ccc(C2CC(c3ccc(Nc4ccnc5cc(Cl)ccc45)cc3)=NN2C=O)cc1 (stereo not given),6090 nM,> 100000
COCC(C(=O)OC1C/C=C/C=C/C(=O)OC(C(C)C(O)C(C)CCC(OC(=O)C(C)N(C)C)C(C)C(OC(C)=O)C(C)/C=C/N(C)C=O)C/C=C/C(OC)CC(C)C/C=C(\C)C(OC)CCC(C)C(O)C1C)N(C)C (stereo not given),< 0.1 nM,1.36

# Tested on: SK-OV-3 ovarian
# Assay: inhibition of tumour cell growth, NCI panel, 48 h
Structure (SMILES),GI50 [nM],TGI [nM]
CCc1ccc2c(c1)N(CCO)C1=C(C(=O)OC1)C2c1cc(OC)c(OC)c(OC)c1 (stereo not given),169,
Cc1ccc(C2CC(c3ccc(Nc4ccnc5cc(Cl)ccc45)cc3)=NN2C=O)cc1 (stereo not given),> 100000,> 100000
COCC(C(=O)OC1C/C=C/C=C/C(=O)OC(C(C)C(O)C(C)CCC(OC(=O)C(C)N(C)C)C(C)C(OC(C)=O)C(C)/C=C/N(C)C=O)C/C=C/C(OC)CC(C)C/C=C(\C)C(OC)CCC(C)C(O)C1C)N(C)C (stereo not given),< 0.1,16.4

# Tested on: OVCAR-4 ovarian
# Assay: inhibition of tumour cell growth, NCI panel, 48 h
Structure (SMILES),GI50 [nM],TGI [nM]
CCc1ccc2c(c1)N(CCO)C1=C(C(=O)OC1)C2c1cc(OC)c(OC)c(OC)c1 (stereo not given),362,> 50000
Cc1ccc(C2CC(c3ccc(Nc4ccnc5cc(Cl)ccc45)cc3)=NN2C=O)cc1 (stereo not given),5150,> 100000
COCC(C(=O)OC1C/C=C/C=C/C(=O)OC(C(C)C(O)C(C)CCC(OC(=O)C(C)N(C)C)C(C)C(OC(C)=O)C(C)/C=C/N(C)C=O)C/C=C/C(OC)CC(C)C/C=C(\C)C(OC)CCC(C)C(O)C1C)N(C)C (stereo not given),5.37,> 281

# Tested on: COLO 205 colon
# Assay: inhibition of tumour cell growth, NCI panel, 48 h
Structure (SMILES),GI50 [nM],TGI [nM]
CCc1ccc2c(c1)N(CCO)C1=C(C(=O)OC1)C2c1cc(OC)c(OC)c(OC)c1 (stereo not given),151,437
Cc1ccc(C2CC(c3ccc(Nc4ccnc5cc(Cl)ccc45)cc3)=NN2C=O)cc1 (stereo not given),4590,> 100000

# Tested on: TK-10 renal
# Assay: inhibition of tumour cell growth, NCI panel, 48 h
Structure (SMILES),GI50 [nM],TGI [nM]
Cn1cnnc1[S-].[Au+].c1ccc([PH+](c2ccccc2)c2ccccc2)cc1,1720,3200
CCc1ccc2c(c1)N(CCO)C1=C(C(=O)OC1)C2c1cc(OC)c(OC)c(OC)c1 (stereo not given),248,> 50000
Cc1ccc(C2CC(c3ccc(Nc4ccnc5cc(Cl)ccc45)cc3)=NN2C=O)cc1 (stereo not given),> 100000,> 100000
COCC(C(=O)OC1C/C=C/C=C/C(=O)OC(C(C)C(O)C(C)CCC(OC(=O)C(C)N(C)C)C(C)C(OC(C)=O)C(C)/C=C/N(C)C=O)C/C=C/C(OC)CC(C)C/C=C(\C)C(OC)CCC(C)C(O)C1C)N(C)C (stereo not given),15.8,87.7

# Tested on: CAKI-1 renal
# Assay: inhibition of tumour cell growth, NCI panel, 48 h
Structure (SMILES),GI50 [nM],TGI [nM]
Cn1cnnc1[S-].[Au+].c1ccc([PH+](c2ccccc2)c2ccccc2)cc1,1500,2820
CCc1ccc2c(c1)N(CCO)C1=C(C(=O)OC1)C2c1cc(OC)c(OC)c(OC)c1 (stereo not given),599,> 50000
Cc1ccc(C2CC(c3ccc(Nc4ccnc5cc(Cl)ccc45)cc3)=NN2C=O)cc1 (stereo not given),> 100000,> 100000
COCC(C(=O)OC1C/C=C/C=C/C(=O)OC(C(C)C(O)C(C)CCC(OC(=O)C(C)N(C)C)C(C)C(OC(C)=O)C(C)/C=C/N(C)C=O)C/C=C/C(OC)CC(C)C/C=C(\C)C(OC)CCC(C)C(O)C1C)N(C)C (stereo not given),< 0.1,7

# Tested on: ACHN renal
# Assay: inhibition of tumour cell growth, NCI panel, 48 h
Structure (SMILES),GI50 [nM],TGI [nM]
Cn1cnnc1[S-].[Au+].c1ccc([PH+](c2ccccc2)c2ccccc2)cc1,1770,3160
